Reference: patent US9512180B2, “Compstatin analogs” (THE REGENTS OF THE UNIVERSITY OF CALIFORNIA, priority 2012, dated 2016)

How the values were obtained:
[1] = RP-HPLC relative lipophilicity (retention factor k, log k); format: physicochemical
Protocol: The effect of the hydrophobic content of compstatin family peptides on relative lipophilicity was evaluated using RP-HPLC, a widely applied indirect technique for the determination of the lipophilicity of drugs and drug candidates. The determination of log P by RP-HPLC is based on the measurement of the retention factor k between the mobile and stationary phase (Eq. 7) of the investigated compound:
[formula] where tR is the retention time of the analyte, and to is the elution time of an unretained analyte. The logarithm of the retention factor is linearly correlated with the logarithm of the partition coefficient log P=a log k+b (8). where a and b are the slope and intercept of the linear equation.
The determination of log P values requires calibration using structurally related compounds, and is beyond the scope of this study. Instead the log k values were used to indicate the relative lipophilicities of this compstatin peptide family.
HPLC experiments were carried out using an Agilent 1100 HPLC with UV detection at 280 nm at 25° C. Separations were performed on a Waters (Milford, Mass.) 4.6×150 mm XTerra MS C18 column with 5 μm pore size using a mobile phase of A: 10 mM phosphate buffer pH=7.4 containing 1% TFA, and B: acetonitrile. The purity of the peptides was verified by an isocratic separation at 28% B and a flow rate of 1 mL/min. Solutions containing 0.6-0.8 mg/mL of Peptides I, III, VI, IX and the parent peptide were prepared in methanol and diluted 5-times with the eluent. All five peptides eluted as single peaks indicating a high degree of purity (FIG. 10).
For the determination of the relative lipophilicities a solution containing each of the peptides was prepared from the stock solutions and injected in triplicate. […] A 0.5 mg/mL solution of aspartic acid was used as the unretained analyte for the determination of the column dead time, 1.439±0.003 min.
RP-HPLC was used to measure the hydrophobicity/lipophilicity content of the compstatin family peptides. The retention of a compound in RP-HPLC depends on its hydrophobicity/lipophilicity content, and is correlated to the octanol-water partition ratio. Lipophilicity describes the partitioning of a compound between an aqueous and a lipidic/hydrophobic environment, and is an essential physicochemical parameter to determine pharmacokinetic behavior according to ADME (absorption, distribution, metabolism, excretion) characterization. Because the compstatin family peptides consist of a hydrophobic and a polar surface, their ability to bind to the hydrophobic cavity of C3, while maintaining a solvent-exposed face has been evaluated here as lipohilicity content, measured by RP-HPLC. In addition, lipohilicity is inversely proportional to aqueous solubility, and therefore can be used to estimate solubility of the peptides in their free (unbound) state.

[2] = Aqueous solubility by concentration measurement (absorbance at 280 nm) of saturated peptide solutions; format: physicochemical; conditions: saturated peptide solutions, absorbance at 280 nm; read-out: approximate aqueous solubility
Protocol: The relative lipophilicities of Peptides I, III, VI, IX, and Parent are inversely consistent with solubilities as determined via concentration measurement (absorbance at 280 nm) of saturated peptide solutions, with Peptides I, III, and Parent having approximate aqueous solubilities of >1 mM, Peptide VI>500 μM, and Peptide IX<500 μM.

[3] = molecular target: rC3 (Rattus norvegicus, UniProt P01026); test: Experimental activity against rC3 (method not described)
Chain of rC3 (P01026 25-1663): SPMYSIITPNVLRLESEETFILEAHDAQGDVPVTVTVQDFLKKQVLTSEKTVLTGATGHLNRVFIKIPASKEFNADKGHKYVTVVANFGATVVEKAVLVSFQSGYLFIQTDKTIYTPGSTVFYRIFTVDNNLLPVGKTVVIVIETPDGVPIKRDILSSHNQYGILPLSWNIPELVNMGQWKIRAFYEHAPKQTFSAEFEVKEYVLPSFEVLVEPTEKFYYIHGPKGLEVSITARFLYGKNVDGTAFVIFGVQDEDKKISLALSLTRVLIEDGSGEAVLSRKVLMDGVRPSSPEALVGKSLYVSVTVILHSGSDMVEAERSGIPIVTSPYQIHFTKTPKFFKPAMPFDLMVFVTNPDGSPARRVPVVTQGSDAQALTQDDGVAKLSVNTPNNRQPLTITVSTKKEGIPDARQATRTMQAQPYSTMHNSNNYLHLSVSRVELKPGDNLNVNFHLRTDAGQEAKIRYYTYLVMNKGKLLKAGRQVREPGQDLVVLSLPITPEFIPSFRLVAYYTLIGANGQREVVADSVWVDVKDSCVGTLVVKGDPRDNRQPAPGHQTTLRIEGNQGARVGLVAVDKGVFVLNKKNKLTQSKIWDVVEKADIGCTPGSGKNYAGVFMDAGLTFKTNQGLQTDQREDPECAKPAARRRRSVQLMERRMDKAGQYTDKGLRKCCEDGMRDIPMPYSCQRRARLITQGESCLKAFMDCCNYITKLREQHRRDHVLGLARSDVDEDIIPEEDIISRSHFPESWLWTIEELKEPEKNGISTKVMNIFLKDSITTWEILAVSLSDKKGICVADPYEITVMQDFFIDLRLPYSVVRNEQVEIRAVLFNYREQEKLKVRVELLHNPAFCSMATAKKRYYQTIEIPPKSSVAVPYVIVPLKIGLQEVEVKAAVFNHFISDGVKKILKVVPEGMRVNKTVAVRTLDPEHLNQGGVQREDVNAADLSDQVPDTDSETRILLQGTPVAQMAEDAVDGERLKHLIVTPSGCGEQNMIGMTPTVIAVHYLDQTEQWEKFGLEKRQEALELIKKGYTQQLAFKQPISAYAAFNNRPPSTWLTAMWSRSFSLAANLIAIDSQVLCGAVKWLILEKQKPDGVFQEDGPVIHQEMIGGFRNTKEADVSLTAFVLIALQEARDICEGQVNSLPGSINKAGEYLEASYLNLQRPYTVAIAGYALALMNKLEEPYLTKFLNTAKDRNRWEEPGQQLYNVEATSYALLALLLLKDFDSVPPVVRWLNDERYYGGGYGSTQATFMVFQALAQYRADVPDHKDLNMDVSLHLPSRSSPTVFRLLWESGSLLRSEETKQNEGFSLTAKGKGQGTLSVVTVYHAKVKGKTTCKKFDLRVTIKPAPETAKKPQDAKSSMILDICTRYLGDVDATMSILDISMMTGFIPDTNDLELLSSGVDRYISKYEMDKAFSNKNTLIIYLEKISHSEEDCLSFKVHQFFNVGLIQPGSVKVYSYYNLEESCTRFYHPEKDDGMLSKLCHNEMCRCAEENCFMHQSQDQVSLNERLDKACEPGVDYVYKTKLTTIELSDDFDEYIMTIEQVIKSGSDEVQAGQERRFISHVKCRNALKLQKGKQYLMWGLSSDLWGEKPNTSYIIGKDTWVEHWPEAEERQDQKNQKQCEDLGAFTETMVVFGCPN

CC[C@H](C)[C@H](NC(C)=O)C(=O)N[C@H]1CSSC[C@@H](C(=O)N[C@H](C(N)=O)[C@@H](C)O)NC(=O)[C@H](CCCNC(=N)N)NC(=O)[C@H](Cc2c[nH]cn2)NC(=O)[C@H](C)NC(=O)CNC(=O)[C@H](Cc2c[nH]c3ccccc23)NC(=O)[C@H](CC(=O)O)NC(=O)[C@H](CCC(N)=O)NC(=O)[C@H](Cc2c[nH]c3ccccc23)NC(=O)[C@H](C(C)C)NC1=O [Peptide IX, Ac- ICV WQDWGA HRCT-NH2, reference compound]
Retention factor (k) [1]: 11.429 | logk [1]: 1.058 | solubility [2]: < 500 µM | activity against rC3 (in words) [3]: inactive
